Reference: patent US11951149B2, “Intranasal vasopressin treatment of social deficits in autism” (The Board of Trustees of the Leland Stanford Junior …, priority 2018, dated 2024)

Experiments:
[1] = tested on: children with ASD; assay: Adverse events assessed by the DOTES and OAS, 4-week trial; format: in vivo, human
Procedure: (§1) Commercially available injectable sterile AVP was used in this study. It was initially purchased from JHP Pharmaceuticals (Rochester, MI), which was subsequently acquired by Par Sterile Products (Chestnut Ridge, NY) in 2014. The placebo solution was prepared by Koshland Pharm (San Francisco, CA) and consisted of ingredients used in the active solution except the AVP compound. A pharmacist transferred 25 mL of AVP (20 International Units (IU)/mL) or placebo solutions into sterile amber glass bottles with metered (0.1 mL/per puff) nasal spray applicators to ensure that the AVP and placebo applicators were visually indistinguishable to the research team. These applicators were coded and given to the Stanford Health Care's Investigational Drug Service (IDS) for refrigerated storage (2-8° C.) and subsequent dispensing. Following the first AVP dose (see below), the dose escalation regimen for all participants involved administration of 4 IU twice daily (or BID) of AVP during week 1 and 8 IU BID of AVP during week 2. Participants aged 6 to 9.5 years then received 12 IU BID of AVP during weeks 3 and 4, while participants aged 9.6 to 12.92 years received 16 IU BID of AVP during weeks 3 and 4.
(§2) Parents were trained in the clinic by research staff to administer the nasal spray to their child. The first dose was administered in the ADDC under the direct supervision of the research team (with the first dose being 12 IU for participants aged 6 to 9.5 years and 16 IU for participants aged 9.6 to 12.92 years). Vital signs were monitored before, and 20 minutes after, initial single-dose nasal spray administration to monitor for acute, unanticipated reactions to AVP. Participants' parents then received two 25 mL nasal spray bottles containing either AVP or placebo for 4 weeks of at-home dispensing (as described above), for which they were responsible for their child's continued twice daily dosing. Parents were instructed to keep the bottles refrigerated with only brief room temperature excursions (i.e., for dosing). Participants underwent weekly safety/tolerability assessments in the clinic to monitor for adverse events. On completion of the 4-week treatment period, behavioral data, safety/tolerability data, and blood samples were again collected. After completion of the trial, participants randomized to the placebo group were invited to participate in an optional open-label 4-week AVP treatment phase to ensure that all children had the opportunity to receive AVP treatment.
(§3) Throughout the trial, safety and tolerability were assessed weekly using the following measurements: vital signs, 12-lead electrocardiogram, clinical chemistry labs, and height and weight. Side effects were evaluated with the DOTES (51), and modified to assess potential side effects that might be related to AVP such as hyponatremia/water intoxication. Finally, based on animal studies showing that AVP can induce aggressive behavior under some circumstances (39, 40), the OAS was used to monitor for observable aggressive or violent behavior in this trial (52).
One-way LS-GLMs were used to test the change from baseline between the AVP and placebo treatment groups following 4-week treatment for adverse events and safety measures. Fisher's exact Test was used to test for differences between treatment conditions for participant characteristics and concomitant medications. Suitable transformations were applied as needed.

[2] = tested on: children with ASD; assay: Vital signs, change from baseline, 4-week trial; format: in vivo, human; conditions: after 4-week treatment
Procedure: as §1, §2, §3
(§4) Treatment effect generalizability was evaluated using: 1) the RBS-R which measures a comprehensive list of repetitive and stereotyped behaviors (61); and 2) The Spence Children's Anxiety Scale which assesses the severity of trait anxiety symptoms broadly in line with DSM dimensions of anxiety disorder (62). Anxiety was selected as an outcome measure due to its significant comorbidity with ASD (63). Finally, safety and tolerability were evaluated using: 1) the DOTES (51); and 2) change from baseline in electrocardiogram, clinical chemistry labs, vital signs (i.e., blood pressure, heart rate, temperature), as well as height and weight.
(§5) One-way LS-GLMs were used to test the change from baseline between the AVP and placebo treatment groups following 4-week treatment for adverse events and safety measures. […]

[3] = tested on: children with ASD; assay: 12-lead electrocardiogram, change from baseline, 4-week trial; format: in vivo, human; conditions: after 4-week treatment
Procedure: as §1, §2, §3, §4, §5

[4] = tested on: children with ASD; assay: Clinical chemistry, change from baseline, 4-week trial; format: in vivo, human; conditions: after 4-week treatment
Procedure: as §1, §2, §3
Whole blood was drawn from the child's antecubital region by a pediatric phlebotomist using standard protocols at Lucile Packard Children's Hospital outpatient laboratory. A portion of the sample was collected per standard laboratory protocols and sent for clinical chemistry analysis. To evaluate AVP concentrations, whole blood was also collected into chilled EDTA-treated vacutainer tubes and immediately placed on wet ice. Samples were promptly centrifuged (1600×g at 4° C. for 15 min), the plasma fraction aliquoted into polypropylene tubes, and flash-frozen on dry ice. Whole blood was also collected into PAXgene RNA tubes (Qiagen, CA) and processed per manufacturer instruction to evaluate neuropeptide receptor gene expression [i.e., oxytocin receptor (OXTR) and AVPR1A]. All samples were stored at −80° C. until quantification. […]

[5] = tested on: children with ASD; assay: Height and weight, change from baseline, 4-week trial; format: in vivo, human; conditions: after 4-week treatment
Procedure: Commercially available injectable sterile AVP was used in this study. It was initially purchased from JHP Pharmaceuticals (Rochester, MI), which was subsequently acquired by Par Sterile Products (Chestnut Ridge, NY) in 2014. The placebo solution was prepared by Koshland Pharm (San Francisco, CA) and consisted of ingredients used in the active solution except the AVP compound. A pharmacist transferred 25 mL of AVP (20 International Units (IU)/mL) or placebo solutions into sterile amber glass bottles with metered (0.1 mL/per puff) nasal spray applicators to ensure that the AVP and placebo applicators were visually indistinguishable to the research team. […]
Parents were trained in the clinic by research staff to administer the nasal spray to their child. […] Vital signs were monitored before, and 20 minutes after, initial single-dose nasal spray administration to monitor for acute, unanticipated reactions to AVP. […]
Throughout the trial, safety and tolerability were assessed weekly using the following measurements: vital signs, 12-lead electrocardiogram, clinical chemistry labs, and height and weight. Side effects were evaluated with the DOTES (51), and modified to assess potential side effects that might be related to AVP such as hyponatremia/water intoxication. […]

[6] = intranasal administration; cited from earlier work
[7] = tested on: high-functioning adults with ASD; conditions: single dose intravenous, cited from earlier work
[8] = tested on: ASD in children; assay: Intranasal administration of desmopressin in children with ASD; format: in vivo, human
[9] = Dermatological, 4-week treatment, N = 17
[10] = Gastrointestinal, 4-week treatment, N = 17
[11] = General, 4-week treatment, N = 17
[12] = HEENT, 4-week treatment, N = 17
[13] = Neurological/Psychiatric, 4-week treatment, N = 17
[14] = Renal, 4-week treatment, N = 17
[15] = post hoc sub-test, not corrected for multiple comparisons

SMILES: NC(=O)CC[C@@H]1NC(=O)[C@H](Cc2ccccc2)NC(=O)[C@H](Cc2ccc(O)cc2)NC(=O)[C@@H](N)CSSC[C@@H](C(=O)N2CCC[C@H]2C(=O)N[C@@H](CCCN=C(N)N)C(=O)NCC(N)=O)NC(=O)[C@H](CC(N)=O)NC1=O [AVP, arginine vasopressin]
- Tolerability ([1]; 4-week intranasal treatment): well tolerated with minimal adverse effects
- Adverse event rates compared to placebo-treated group (DOTES, OAS) ([1]; 4-week treatment, parent ratings): no significant differences
- Adverse event: Bug bite [1, 9]: 1 (6%) counts and percentages
- Adverse event: Skin burn [1, 9]: 0 (0%) counts and percentages
- Adverse event: Skin rash [1, 9]: 1 (6%) counts and percentages
- Adverse event: Constipation [1, 10]: 1 (6%) counts and percentages
- Adverse event: Decreased appetite [1, 10]: 4 (24%) counts and percentages
- Adverse event: Diarrhea [1, 10]: 0 (0%) counts and percentages
- Adverse event: Nausea/vomiting [1, 10]: 2 (12%) counts and percentages
- Adverse event: Body ache [1, 11]: 1 (6%) counts and percentages
- Adverse event: Cough [1, 11]: 1 (6%) counts and percentages
- Adverse event: Fever [1, 11]: 2 (12%) counts and percentages
- Adverse event: Blurred vision [1, 12]: 1 (6%) counts and percentages
- Adverse event: Cold sore [1, 12]: 0 (0%) counts and percentages
- Adverse event: Dry mouth [1, 12]: 1 (6%) counts and percentages
- Adverse event: Ear infection [1, 12]: 0 (0%) counts and percentages
- Adverse event: Nasal congestion [1, 12]: 3 (18%) counts and percentages
- Adverse event: Runny nose [1, 12]: 0 (0%) counts and percentages
- Adverse event: Sore throat [1, 12]: 0 (0%) counts and percentages
- Adverse event: Aggression [1, 13]: 1 (6%) counts and percentages
- Adverse event: Akathisia [1, 13]: 1 (6%) counts and percentages
- Adverse event: Decreased motor activity [1, 13]: 1 (6%) counts and percentages
- Adverse event: Depressive affect [1, 13]: 2 (12%) counts and percentages
- Adverse event: Dizziness [1, 13]: 0 (0%) counts and percentages
- Adverse event: Drowsiness [1, 13]: 1 (6%) counts and percentages
- Adverse event: Excitement/agitation [1, 13]: 4 (24%) counts and percentages
- Adverse event: Head banging [1, 13]: 1 (7%) counts and percentages
- Adverse event: Headache [1, 13]: 2 (12%) counts and percentages
- Adverse event: Increased motor activity [1, 13]: 4 (24%) counts and percentages
- Adverse event: Insomnia [1, 13]: 4 (24%) counts and percentages
- Adverse event: Lethargy/tiredness [1, 13]: 0 (0%) counts and percentages
- Adverse event: Bed wetting [1, 14]: 1 (6%) counts and percentages
- Adverse event: Increased urination [1, 14]: 1 (6%) counts and percentages
- Change from baseline LSM +/− SE: BP Change Diastolic (Standin-Sitting) [2]: −3.1 ± 2.65
- Change from baseline LSM +/− SE: BP Change Systolic (Standing-Sitting) [2]: −3.6 ± 2.76
- Change from baseline LSM +/− SE: BP, Diastolic, Sitting [2]: 3.2 ± 2.09 mmHg
- Change from baseline LSM +/− SE: BP, Diastolic, Standing [2]: 0.1 ± 2.31 mmHg
- Change from baseline LSM +/− SE: BP, Systolic, Sitting [2]: 5.5 ± 2.53 mmHg
- Change from baseline LSM +/− SE: BP, Systolic, Standing [2]: 1.9 ± 2.38 mmHg
- Change from baseline LSM +/− SE: Pulse change [2]: 2.1 ± 2.75 beats per minute
- Change from baseline LSM +/− SE: Pulse sitting [2]: 1.9 ± 3.87 beats per minute
- Change from baseline LSM +/− SE: Pulse standing [2]: 4.0 ± 3.57 beats per minute
- Change from baseline LSM +/− SE: Temperature [2]: 0.2 ± 0.17 ° F.
- Changes from baseline in vital signs [2]: No significant changes from baseline
- Changes from baseline in 12-lead electrocardiogram [3]: No significant changes from baseline
- Change from baseline LSM +/− SE: Bazett’s Corrected QT Interval ([3]; electrocardiogram): -1.9 ± 5.07 ms
- Change from baseline LSM +/− SE: Heart Rate ([3]; electrocardiogram): −2.5 ± 3.75 bpm
- Change from baseline LSM +/− SE: P Duration ([3]; electrocardiogram): -2.6 ± 5.76 ms
- Change from baseline LSM +/− SE: PR Intervals ([3]; electrocardiogram): -4.6 ± 6.40 ms
- Change from baseline LSM +/− SE: QRS Interval ([3]; electrocardiogram): 0.4 ± 1.55 ms
- Change from baseline LSM +/− SE: QT Interval ([3]; electrocardiogram): 3.5 ± 5.53 ms
- Change from baseline LSM +/− SE: Anion Gap [4]: -0.65 ± 0.78 mmol/L
- Change from baseline LSM +/− SE: CO2 [4]: -0.12 ± 0.57 mmol/L
- Change from baseline LSM +/− SE: Calcium [4]: 0.047 ± 0.07 mg/dL
- Change from baseline LSM +/− SE: Chloride [4]: 1.0 ± 0.56 mmol/L
- Change from baseline LSM +/− SE: Creatine [4]: -0.017 ± 0.03 mg/dL
- Change from baseline LSM +/− SE: Glucose [4]: 2.2 ± 4.41 mg/dL
- Change from baseline LSM +/− SE: Osmolality (Serum) [4]: 0.18 ± 1.01 mOsm/kg
- Change from baseline LSM +/− SE: Osmolality (Urine) [4]: 8.5 ± 82.6 mOsm/kg
- Change from baseline LSM +/− SE: Potassium [4]: 0.15 ± 0.11 mmol/L
- Change from baseline LSM +/− SE: Sodium [4]: 0.24 ± 0.63 mmol/L
- Change from baseline LSM +/− SE: Urea Nitrogen [4]: -1.3 ± 0.78 mg/dL
- Changes from baseline in clinical chemistry [4]: No significant changes from baseline
- Change from baseline LSM +/− SE: Height [5]: 0.8 ± 0.23 centimeters
- Changes from baseline in physiological measures [5]: No significant changes from baseline
- Cerebrospinal fluid (CSF) concentrations of measured AVP [6]: elevated

SMILES: CN(C)CCn1cc(C(=O)N2CCC3(CC2)OCc2ccccc23)c2ccc(Cl)cc21 [RG7713]
- Improvements on overall composite tests [7]: non-significant
- Ability to detect lust on an affective speech recognition task [7, 15]: reduced
- Biological motion orienting preference [7, 15]: increased

SMILES: NC(=O)CC[C@@H]1NC(=O)[C@H](Cc2ccccc2)NC(=O)[C@H](Cc2ccc(O)cc2)NC(=O)CCSSC[C@@H](C(=O)N2CCC[C@H]2C(=O)N[C@H](CCCN=C(N)N)C(=O)NCC(N)=O)NC(=O)[C@H](CC(N)=O)NC1=O [desmopressin, 1-deamino-8-D-arginine-vasopressin]
- Treatment of ASD in children [8]: not found to effectively treat ASD
